From patent publication US20080254983A1, “Herbicide Composition” (NUFARM AUSTRALIA LIMITED, priority 2005, published 2008)

Test system: Annual Ryegrass (LOLRI)
Experiment: Field trials throughout Australia, annual ryegrass (LOLRI) counts
Format: in vivo
Conditions: for % control: from mean vs untreated control; for Mean Plants/m2: mean of the seven trials
Procedure: A series of field trials were conducted throughout Australia to assess the performance of Example 5 composition (400 g/L trifluralin+117 g/L cinmethylin+UAN compatibiliser) versus the performance of either trifluralin or cinmethylin applied as standalone treatments.
All trials were sown under a knifepoint/reduced tillage seeding systems with trial design and management reflecting common district and grower practice. Rates of herbicide application were designed to allow comparison of the co-mixture and solvency package against the relative merits of either active ingredient applied alone in their currently available commercial formulation package (see table below).
Products were applied prior to sowing and were applied in water with industry accepted application equipment and spray nozzles.

CCCN(CCC)c1c([N+](=O)[O-])cc(C(F)(F)F)cc1[N+](=O)[O-] [Trifluralin, trifluralin]
LOLRI Plants/m2 (720 gai/ha, Vic Lentils 81-DAT): 26 Plants/m2
LOLRI Plants/m2 (720 gai/ha, Vic Lentils H02 51-DAT): 21 Plants/m2
LOLRI Plants/m2 (720 gai/ha, Vic Wheat 49-DAT): 105 Plants/m2
LOLRI Plants/m2 (720 gai/ha, Vic Wheat H03 79-DAT): 168 Plants/m2
LOLRI Plants/m2 (720 gai/ha, WA Canola W06-197 27-DAT): 264 Plants/m2
LOLRI Plants/m2 (720 gai/ha, WA Lupins W06-200 19-DAT): 224 Plants/m2
LOLRI Plants/m2 (720 gai/ha, WA Wheat W06-196 27-DAT): 191 Plants/m2
% control (720 gai/ha): 63%
Mean Plants/m2 (720 gai/ha): 143 Plants/m2
LOLRI Plants/m2 (960 gai/ha, Vic Lentils 81-DAT): 22 Plants/m2
LOLRI Plants/m2 (960 gai/ha, Vic Lentils H02 51-DAT): 19 Plants/m2
LOLRI Plants/m2 (960 gai/ha, Vic Wheat 49-DAT): 10 Plants/m2
LOLRI Plants/m2 (960 gai/ha, Vic Wheat H03 79-DAT): 22 Plants/m2
LOLRI Plants/m2 (960 gai/ha, WA Canola W06-197 27-DAT): 208 Plants/m2
LOLRI Plants/m2 (960 gai/ha, WA Lupins W06-200 19-DAT): 169 Plants/m2
LOLRI Plants/m2 (960 gai/ha, WA Wheat W06-196 27-DAT): 207 Plants/m2
% control (960 gai/ha): 76%
Mean Plants/m2 (960 gai/ha): 94 Plants/m2
LOLRI Plants/m2 (1440 gai/ha, Vic Lentils 81-DAT): 23 Plants/m2
LOLRI Plants/m2 (1440 gai/ha, Vic Lentils H02 51-DAT): 14 Plants/m2
LOLRI Plants/m2 (1440 gai/ha, Vic Wheat 49-DAT): 29 Plants/m2
LOLRI Plants/m2 (1440 gai/ha, Vic Wheat H03 79-DAT): 33 Plants/m2
LOLRI Plants/m2 (1440 gai/ha, WA Canola W06-197 27-DAT): 156 Plants/m2
LOLRI Plants/m2 (1440 gai/ha, WA Lupins W06-200 19-DAT): 184 Plants/m2
LOLRI Plants/m2 (1440 gai/ha, WA Wheat W06-196 27-DAT): 135 Plants/m2
% control (1440 gai/ha): 79%
Mean Plants/m2 (1440 gai/ha): 82 Plants/m2

Cc1ccccc1CO[C@@H]1C[C@@]2(C(C)C)CC[C@]1(C)O2 (racemic) [Cinmethylin]
LOLRI Plants/m2 (100 gai/ha, Vic Lentils 81-DAT): 18 Plants/m2
LOLRI Plants/m2 (100 gai/ha, Vic Lentils H02 51-DAT): 15 Plants/m2
LOLRI Plants/m2 (100 gai/ha, Vic Wheat 49-DAT): 69 Plants/m2
LOLRI Plants/m2 (100 gai/ha, Vic Wheat H03 79-DAT): 136 Plants/m2
LOLRI Plants/m2 (100 gai/ha, WA Canola W06-197 27-DAT): 419 Plants/m2
LOLRI Plants/m2 (100 gai/ha, WA Lupins W06-200 19-DAT): 503 Plants/m2
LOLRI Plants/m2 (100 gai/ha, WA Wheat W06-196 27-DAT): 300 Plants/m2
% control (100 gai/ha): 46%
Mean Plants/m2 (100 gai/ha): 208 Plants/m2
LOLRI Plants/m2 (200 gai/ha, Vic Lentils 81-DAT): 10 Plants/m2
LOLRI Plants/m2 (200 gai/ha, Vic Lentils H02 51-DAT): 8 Plants/m2
LOLRI Plants/m2 (200 gai/ha, Vic Wheat 49-DAT): 67 Plants/m2
LOLRI Plants/m2 (200 gai/ha, Vic Wheat H03 79-DAT): 78 Plants/m2
LOLRI Plants/m2 (200 gai/ha, WA Canola W06-197 27-DAT): 307 Plants/m2
LOLRI Plants/m2 (200 gai/ha, WA Lupins W06-200 19-DAT): 235 Plants/m2
LOLRI Plants/m2 (200 gai/ha, WA Wheat W06-196 27-DAT): 264 Plants/m2
% control (200 gai/ha): 64%
Mean Plants/m2 (200 gai/ha): 138 Plants/m2
LOLRI Plants/m2 (400 gai/ha, Vic Lentils 81-DAT): 14 Plants/m2
LOLRI Plants/m2 (400 gai/ha, Vic Lentils H02 51-DAT): 10 Plants/m2
LOLRI Plants/m2 (400 gai/ha, Vic Wheat 49-DAT): 22 Plants/m2
LOLRI Plants/m2 (400 gai/ha, Vic Wheat H03 79-DAT): 19 Plants/m2
LOLRI Plants/m2 (400 gai/ha, WA Canola W06-197 27-DAT): 324 Plants/m2
LOLRI Plants/m2 (400 gai/ha, WA Lupins W06-200 19-DAT): 124 Plants/m2
LOLRI Plants/m2 (400 gai/ha, WA Wheat W06-196 27-DAT): 229 Plants/m2
% control (400 gai/ha): 73%
Mean Plants/m2 (400 gai/ha): 106 Plants/m2
